This experiment has as its system androgenetic alopecia model in C57BL/6J mice. The experiment in a line: Hair regeneration effects on androgenic alopecia C57 mouse model (DHT-induced). Type of experiment: in vivo, C57BL/6N mice. The following applies: AVER n = 6, score 0-5. An excerpt: Activity Assay Example 8: Hair Regeneration Effects of Compounds on Androgenic Alopecia C57 Mouse Model
The purpose of this study was to compare the effect of the compounds prepared by the present invention as AR protein degraders on hair regrowth in an androgenetic alopecia model in C57BL/6J mice by transdermal application route of administration, and to provide data to support subsequent clinical trials.
2. Experimental Principle
Name of test compound I: dihydrotestosterone DHT; name of test compound II: compound A46 of the present invention; name of test compound III: minoxidil.
4. Experimental animals: strain: C57BL/6N mice; age: 6-7 weeks; gender: male; number of animals: 70 (10 for later use); rearing environment: specific pathogen-free (SPF).
70 mice were deeply anesthetized, and the hair on the back of the mice was removed with an animal shaver, then the depilatory cream (Veet https://item.jd.com/6291245.html) was smeared evenly on the surface of the mice skin, and left 7-10 minutes. Then the hair was gently scraped off with a hair removal scraper against the direction of the hair, and finally the residual hair removal cream on the skin surface was fully washed with water to avoid burning the mice skin.
This experiment was divided into 6 groups, and the DHT administration started on the day of hair removal, A46 is administered on day 2 after hair removal and is counted as day 1 (the day of hair removal is counted as day 0).
5.3 Test Compound Preparation Method
5.4 Observation and Measurement Indicators • 1) Body weight/g: From the first day of administration, body weight was weighed and recorded twice a week. • 2) Hair regeneration (anagen) score (0 points: no darkening of skin color in all areas; 1 point: darkening of gray skin color areas; 2 points: visible short hair; 3 points: thin hair; 4 points: thick hair; 5 points: full hair growth).
All mice were photographed on day 1 after hair removal, and then photographed and scored daily from day 4 until the end of the experiment. • 3) At the end of the experiment, skin and blood collection operations were performed as needed. 5.5 Criteria for Drug Withdrawal and Experiment Termination
Data are presented as average±standard error (AVE±SEM). One-way multi-level analysis of variance was used for statistics. The comparison between each drug group and the model group was performed by Stundent's t-test or rank sum test, and the p value was calculated. p<0.05 means there is a significant difference between the two groups, p<0.01 means there is a extremely significant difference between the two groups.

Consider `Cc1ncsc1-c1ccc(CNC(=O)[C@@H]2C[C@@H](O)CN2C(=O)[C@@H](NC(=O)COCCCCOc2ccc(-c3ccc(N4C(=S)N(c5ccc(C#N)c(C(F)(F)F)c5F)C(=O)C4(C)C)cn3)cc2)C(C)(C)C)cc1` [Compound A46], for which the Hair regeneration score by setting is: (0.5% skin smear BID + DHT 30 mpk, 0 day) 0.00; (0.5% skin smear BID + DHT 30 mpk, 3 days) 0.00; (0.5% skin smear BID + DHT 30 mpk, 5 days) 0.00; (0.5% skin smear BID + DHT 30 mpk, 7 days) 0.00; (0.5% skin smear BID + DHT 30 mpk, 10 days) 0.33; (0.5% skin smear BID + DHT 30 mpk, 12 days) 0.50. Further, the Hair regeneration score is, setting by setting: (0.5% skin smear BID + DHT 30 mpk, 14 days) 1.00; (0.5% skin smear BID + DHT 30 mpk, 17 days) 1.67; (1% skin smear BID + DHT 30 mpk, 0 day) 0.00; (1% skin smear BID + DHT 30 mpk, 3 days) 0.00; (1% skin smear BID + DHT 30 mpk, 5 days) 0.00; (1% skin smear BID + DHT 30 mpk, 7 days) 0.00. Moreover, the Hair regeneration score is, setting by setting: (1% skin smear BID + DHT 30 mpk, 10 days) 0.33; (1% skin smear BID + DHT 30 mpk, 12 days) 0.83; (1% skin smear BID + DHT 30 mpk, 14 days) 1.50; (1% skin smear BID + DHT 30 mpk, 17 days) 2.00; (3% skin smear BID + DHT 30 mpk, 0 day) 0.00; (3% skin smear BID + DHT 30 mpk, 3 days) 0.00. In addition, the Hair regeneration score runs as follows: (3% skin smear BID + DHT 30 mpk, 5 days) 0.00; (3% skin smear BID + DHT 30 mpk, 7 days) 0.00; (3% skin smear BID + DHT 30 mpk, 10 days) 0.50; (3% skin smear BID + DHT 30 mpk, 12 days) 1.17; (3% skin smear BID + DHT 30 mpk, 14 days) 1.83; (3% skin smear BID + DHT 30 mpk, 17 days) 2.83.

The values above are taken from patent publication US12606552B2, “Bifunctional compound, preparation method therefor, and use thereof” (SUZHOU KINTOR PHARMACEUTICALS, INC., priority 2020, dated 2026).
